Results taken from BindingDB's records for doi:10.7270/Q2319T8T (The Scripps Research Institute Molecular Screening Center, 2007).
Where a name gives a salt, the structure may show the parent alone.

Biological target: Steroidogenic factor 1 (Homo sapiens, UniProt Q13285)
Test: SF-1 inhibitor potency, dose response, cell-based, CHO-K1, Gal4-SF-1 LBD, luciferase luminescence (AID 600)
[1] = inactive by the depositor's call

Sequence of Steroidogenic factor 1 (Q13285 whole entry, the tested form may be a part): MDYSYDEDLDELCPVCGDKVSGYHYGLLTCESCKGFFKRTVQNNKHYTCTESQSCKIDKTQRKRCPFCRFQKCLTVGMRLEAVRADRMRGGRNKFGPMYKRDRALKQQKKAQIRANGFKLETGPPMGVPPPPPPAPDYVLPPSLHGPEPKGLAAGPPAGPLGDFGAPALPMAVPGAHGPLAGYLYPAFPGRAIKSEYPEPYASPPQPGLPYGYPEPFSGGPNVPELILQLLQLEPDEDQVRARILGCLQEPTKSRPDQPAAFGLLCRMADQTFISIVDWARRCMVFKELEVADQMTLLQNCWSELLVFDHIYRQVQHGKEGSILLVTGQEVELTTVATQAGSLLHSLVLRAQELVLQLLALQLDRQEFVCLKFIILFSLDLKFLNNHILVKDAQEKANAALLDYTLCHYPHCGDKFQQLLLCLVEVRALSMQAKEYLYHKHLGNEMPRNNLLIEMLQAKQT

IC50 [µM]	IC50 [1] [µM]	Compound
–	25.4	COc1cccc(Cn2c(NCc3ccco3)nc3c2c(=O)n(C)c(=O)n3C)c1 [8-(2-furanylmethylamino)-7-[(3-methoxyphenyl)methyl]-1,3-dimethylpurine-2,6-dione]
–	13.1	Cc1cc(NC(=O)c2ccc3c(c2)OCCO3)no1 [MLS000064124]
–	21.2	FC(F)(F)c1ccc(N2CCN(c3cc(-c4ccccc4)nc4ncnn34)CC2)nc1 [5-Phenyl-7-[4-(5-trifluoromethyl-pyridin-2-yl)-piperazin-1-yl]-[1,2,4]triazolo[1,5-a]pyrimidine]
3.4	–	COc1cccc(NC(=O)CSc2nnc(-c3cc(C)n(-c4ccccc4)c3C)o2)c1 [2-[[5-(2,5-dimethyl-1-phenyl-3-pyrrolyl)-1,3,4-oxadiazol-2-yl]thio]-N-(3-methoxyphenyl)acetamide]
4.09	–	O=C(Nc1ccc(N2CCOCC2)cc1)c1cnsn1 [MLS000063695]
6.89	–	Cc1ccc(-c2nc3nc4ccccc4nc3n2Cc2ccco2)cc1 [3-(2-furanylmethyl)-2-(4-methylphenyl)imidazo[4,5-b]quinoxaline]
0.0401	–	CCNC(=O)CCc1nc(-c2ccc(C(C)(C)C)cc2)no1 [3-[3-(4-tert-butylphenyl)-1,2,4-oxadiazol-5-yl]-N-ethyl-propanamide]
6.26	–	COc1ccccc1-c1nnc2sc(-c3ccc(N(C)C)cc3)nn12 [4-[3-(2-methoxyphenyl)-[1,2,4]triazolo[3,4-b][1,3,4]thiadiazol-6-yl]-N,N-dimethyl-aniline]
5.99	–	CCOc1ccccc1-n1c(SCC(=O)Nc2ccc(CC)cc2)nc2nnc(C)c-2c1N [MLS000047091]
9.05	–	Cn1nc(C(C)(C)C)cc1C(=O)NCc1ccc(N2CCCC2=O)cc1 [5-tert-Butyl-2-methyl-2H-pyrazole-3-carboxylic acid 4-(2-oxo-pyrrolidin-1-yl)-benzylamide]
7.35	–	CCCc1ccc(-c2ccc(F)c(N)c2)nc1 [2-fluoranyl-5-(5-propylpyridin-2-yl)aniline]
0.625	–	COc1ccc(-c2noc(CCCC(=O)O)n2)cc1 [4-[3-(4-methoxyphenyl)-1,2,4-oxadiazol-5-yl]butanoic acid]
6.8	–	CC1CCCN(c2ncnc3c2cnn3-c2ccccc2)C1 (stereo unspecified) [4-(3-methyl-1-piperidinyl)-1-phenylpyrazolo[3,4-d]pyrimidine]
8.36	–	CCOc1cc(C(=O)CSc2nnc(CNc3ccc(Cl)cc3)o2)ccc1NC(=O)CC [MLS000032332]
6.83	–	O=C(Oc1ccc(-c2nc(-c3ccccn3)no2)cc1)c1ccccc1 [4-[3-(2-pyridinyl)-1,2,4-oxadiazol-5-yl]phenyl benzoate]
4.46	–	Nc1nonc1C(=O)NCCNCc1cc(Br)ccc1OCc1ccc(F)cc1 [4-amino-N-[2-[[5-bromo-2-(4-fluorobenzyl)oxy-benzyl]amino]ethyl]furazan-3-carboxamide;hydrochloride]
5.17	–	Cc1ccc(-c2nnc(Nc3ccccc3)o2)cc1 [5-(4-methylphenyl)-N-phenyl-1,3,4-oxadiazol-2-amine]
0.315	–	CCOC(=O)C(C)Oc1cccc2c(=O)n(CC(=O)NCc3ccc4c(c3)OCO4)ccc12 (stereo unspecified) [ethyl 2-[(2-{[(2H-1,3-benzodioxol-5-ylmethyl)carbamoyl]methyl}-1-oxo-1,2-dihydroisoquinolin-5-yl)oxy]propanoate]
> 33	–	COC(=O)c1nn(-c2ccc(-c3ccccc3)cc2)cc1O [4-hydroxy-1-(4-phenylphenyl)-3-pyrazolecarboxylic acid methyl ester]
1.25	–	Cc1ccc(-c2nc(-c3ccccn3)no2)cc1 [5-(4-methylphenyl)-3-(2-pyridinyl)-1,2,4-oxadiazole]
7.66	–	CCN1C(=O)/C(=C2/Sc3ccc(OC)cc3N2C)S/C1=N\c1cccc(O)c1 [(5Z)-3-ethyl-2-(3-hydroxyphenyl)imino-5-(5-methoxy-3-methyl-1,3-benzothiazol-2-ylidene)-1,3-thiazolidin-4-one]
4.46	–	CCOc1ccc(-c2cc(CCCC(=O)NCCCOC)no2)cc1 [4-[5-(4-ethoxyphenyl)-1,2-oxazol-3-yl]-N-(3-methoxypropyl)butanamide]
7.13	–	Cc1ccccc1NC(=O)N1CCCC(c2nc(-c3ccc(C(C)C)cc3)no2)C1 (stereo unspecified) [3-[3-(4-Isopropyl-phenyl)-[1,2,4]oxadiazol-5-yl]-piperidine-1-carboxylic acid o-tolylamide]

Second part, the compound before the results:

Compound	IC50 [µM]	IC50 [1] [µM]
c1ccc(-c2noc(-c3ccc4ccccc4c3)n2)nc1 [2-[5-(2-naphthyl)-1,2,4-oxadiazol-3-yl]pyridine]	0.7	–
Cc1ccc(N2C(=O)c3ccccc3C2O)nc1 (stereo unspecified) [2-(5-methylpyridin-2-yl)-3-oxidanyl-3H-isoindol-1-one]	8.67	–
c1ccc(-n2ncc3c(N4CCCCC4)ncnc32)cc1 [1-phenyl-4-(1-piperidinyl)pyrazolo[3,4-d]pyrimidine]	5.86	–
Nc1nc(Cl)nc2c1ncn2[C@H]1C[C@H](O)[C@@H](CO)O1 [2-CHLORO-2'-DEOXYADENOSINE]	0.454	–
CCc1ccc(-c2nc(CSCC(=O)N3CCN(c4ncccn4)CC3)c(C)o2)cc1 [2-[[2-(4-ethylphenyl)-5-methyl-1,3-oxazol-4-yl]methylsulfanyl]-1-(4-pyrimidin-2-ylpiperazin-1-yl)ethanone]	–	37.1
CC1CCN(c2nc3ccc(C(=O)O)cc3s2)CC1 [2-(4-methyl-1-piperidinyl)-1,3-benzothiazole-6-carboxylic acid]	2.25	–
CN1CCN(C(=O)COc2ccc(-c3nc4ccccc4s3)cc2)CC1 [2-[4-(1,3-benzothiazol-2-yl)phenoxy]-1-(4-methyl-1-piperazinyl)ethanone]	7.32	–
Cc1occc1C(=O)N1CCN(c2ccc(Cl)c(Cl)c2)CC1 [1-(3,4-dichlorophenyl)-4-(2-methyl-3-furoyl)piperazine]	–	29.7
[O-][N+]1=c2ccc(Nc3ccccc3)cc2=NC12CCCCC2 [1-oxido-N-phenyl-5-spiro[benzimidazol-1-ium-2,1'-cyclohexane]amine]	6.49	–
O=S1(=O)C=C(Sc2nnc(-c3ccccc3)o2)c2ccccc21	3.9	–
CC(=O)c1ccc(N2CCN(c3ccc(C(F)(F)F)cn3)CC2)cc1 [1-[4-[4-[5-(trifluoromethyl)-2-pyridinyl]-1-piperazinyl]phenyl]ethanone]	> 33	–
Clc1ccc(-n2ncc3c(N4CCCC4)ncnc32)cc1 [1-(4-chlorophenyl)-4-(1-pyrrolidinyl)pyrazolo[3,4-d]pyrimidine]	3.17	–
CC(NC(=O)Nc1nnc(C(F)(F)F)s1)(C(F)(F)F)C(F)(F)F [1-(1,1,1,3,3,3-hexafluoro-2-methylpropan-2-yl)-3-[5-(trifluoromethyl)-1,3,4-thiadiazol-2-yl]urea]	6.25	–
CCc1ccc(-c2nnn(CCC(=O)OC)n2)cc1	6.69	–
Cc1cc(-n2c(C)cc(C(=O)CSc3ncnc4ccccc34)c2C)no1 [1-[2,5-dimethyl-1-(5-methyl-1,2-oxazol-3-yl)pyrrol-3-yl]-2-quinazolin-4-ylsulfanyl-ethanone]	9.13	–
Nc1nsc2ccccc12 [1,2-benzothiazol-3-amine]	6.84	–
CCOc1ccc(Nc2cc(C)nc(-n3nc(C)cc3C)n2)cc1 [2-(3,5-dimethyl-1-pyrazolyl)-N-(4-ethoxyphenyl)-6-methyl-4-pyrimidinamine]	7.83	–
CCCS(=O)(=O)c1nnnn1-c1cccc(OC)c1 [1-(3-methoxyphenyl)-5-(propylsulfonyl)-1H-tetrazole]	4.96	–
